Data set [1] has as its target T1, human GIPR (Homo sapiens, UniProt P48546).
T1 construct: expressed in transfected cells; host or cells: CHO-K1 clonal cell line
T1 sequence (P48546 22-466): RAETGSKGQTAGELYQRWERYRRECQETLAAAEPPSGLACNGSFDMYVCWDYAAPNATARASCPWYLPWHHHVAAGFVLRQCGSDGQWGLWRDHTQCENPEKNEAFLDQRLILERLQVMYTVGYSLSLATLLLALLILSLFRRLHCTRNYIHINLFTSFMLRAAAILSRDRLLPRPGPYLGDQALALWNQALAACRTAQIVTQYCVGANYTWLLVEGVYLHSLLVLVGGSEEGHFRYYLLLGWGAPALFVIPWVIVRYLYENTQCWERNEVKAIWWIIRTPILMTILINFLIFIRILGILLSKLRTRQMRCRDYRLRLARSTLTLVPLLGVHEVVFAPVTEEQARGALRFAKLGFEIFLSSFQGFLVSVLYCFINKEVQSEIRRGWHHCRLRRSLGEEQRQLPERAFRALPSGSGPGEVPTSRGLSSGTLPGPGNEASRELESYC
Nature of the data set: cAMP HTRF agonist activity assay in CHO-K1 cells expressing GIPR. Note: 5% FBS, 0.1% Casein. The class given is cell-based. The conditions noted are these: read-out: Activity against human GIPR (EC50 nM). The method in brief: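 cAMP accumulation measured by competitive HTRF after 30 min incubation of polypeptides with 5000 receptor-expressing CHO-K1 cells/well at 37°C. Percent of maximal response versus concentration fitted to a four-parameter logistic to give relative EC50.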
A general note: In TR-FRET formats the signal depends on donor and acceptor labels being close together.

Data set [2] has as its target T2, human GLP-1R (Homo sapiens, UniProt P43220).
T2 construct: expressed in transfected cells; host or cells: CHO-K1 clonal cell line
The data set can be described thus: cAMP HTRF agonist activity assay in CHO-K1 cells expressing GLP-1R. For Activity against human GLP-1R (EC50 nM): 5% FBS, 0.1% Casein. The class given is cell-based. The method, then: Functional activity was determined in CHO-K1 clonal cell lines expressing GIPR, GLP-1R, and GCGR. […] Each recipient cell (5000 cells/well) was added to an SV 96-well plate (Cisbio, 66PL96025) and incubated with the prepared polypeptide at 37°Cfor 30 min. The resulting increase in intracellular cAMP was quantitatively measured using the cAMP-GS dynamic HTRF assay kit (Cisbio, 62AM4PEJ). Briefly, the intracellular cAMP levels were determined by adding cAMP-d2 conjugate in cell lysis buffer, followed by the antibody anti-cAMP-Eu cryptate (also in cell lysis buffer).
Using the maximum response percentage vs. the added polypeptide concentration, the relative EC50 values were derived through nonlinear regression analysis and fitted to a four-parameter logarithmic equation. For specific data, refer to Tables 7-1 to 7-8 below. […]

A short description of data set [3]: Pharmacokinetics in mice after single intravenous injection. Further details: species or system C57 mice. The conditions noted are these: male, C57, mouse, in vivo, iv. The method in brief:
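Plasma concentrations were measured by positive-mode ESI LC-MS/MRM, with verapamil as internal standard, at time points from 5 min to 72 h. Samples came from three male C57 mice per compound, aged 4-6 weeks, dosed once intravenously with 200 nmol/kg in 1×PBS; PK parameters were derived with PKSolver.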

Setting [4] is: read-out: Activity against human GLP-1R (EC50 nM).

Where two headings read alike, the source gives them in different places. Starred links: 1 amine or outer side, 2 acyl side, 3 side chain; linkers in the order of their positions; H or OH if unused. Non-standard residues stand in square brackets, D forms with d. Residues, ends and D or L forms follow the SMILES beside them. Groups on a side chain read outwards from the residue. *: point of attachment. C20 diacid = O=C(O)CCCCCCCCCCCCCCCCCCC(=O)*; γGlu = O=C(O)[C@H](CCC(=O)[*:2])N[*:1]; αMeK = C[C@](N)(CCCCN)C(=O)O; AEEA = NCCOCCOCC(=O)O; Aib = CC(C)(N)C(=O)O

Experimental findings from EP4745153A1, “GLP-1, GIP AND GCG RECEPTOR […] USE THEREOF” (Jiangsu Hengrui Pharmaceuticals Co., Ltd., priority 2023, dated 2025) are described below.

T2 sequence (P43220 24-463): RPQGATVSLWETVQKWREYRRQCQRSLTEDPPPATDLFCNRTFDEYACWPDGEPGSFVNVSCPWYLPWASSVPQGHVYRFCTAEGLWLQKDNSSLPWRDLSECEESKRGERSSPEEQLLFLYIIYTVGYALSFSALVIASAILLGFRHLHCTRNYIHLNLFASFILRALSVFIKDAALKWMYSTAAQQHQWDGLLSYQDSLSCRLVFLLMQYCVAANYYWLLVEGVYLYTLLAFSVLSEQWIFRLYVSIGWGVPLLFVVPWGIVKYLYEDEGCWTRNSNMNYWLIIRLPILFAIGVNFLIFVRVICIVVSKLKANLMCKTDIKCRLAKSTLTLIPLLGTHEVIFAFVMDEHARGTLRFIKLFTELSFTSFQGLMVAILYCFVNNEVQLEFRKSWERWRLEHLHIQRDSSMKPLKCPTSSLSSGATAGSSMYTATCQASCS

Take `CC[C@H](C)[C@H](NC(=O)[C@H](CO)NC(=O)[C@H](CC(C)C)NC(=O)[C@H](CC(=O)O)NC(=O)[C@H](CO)NC(=O)[C@@H](NC(=O)[C@H](Cc1ccccc1)NC(=O)[C@@H](NC(=O)CNC(=O)[C@H](Cc1c[nH]cn1)NC(=O)C(C)(C)NC(=O)[C@@H](N)Cc1c[nH]cn1)[C@@H](C)O)[C@@H](C)O)C(=O)N[C@@H](CC(C)C)C(=O)N[C@@H](CC(C)C)C(=O)N[C@@H](CCC(=O)O)C(=O)N[C@@H](CCCCNC(=O)COCCOCCNC(=O)COCCOCCNC(=O)CC[C@H](NC(=O)CCCCCCCCCCCCCCCCCCC(=O)O)C(=O)O)C(=O)N[C@@H](CCCCN)C(=O)N[C@@H](C)C(=O)N[C@@H](C)C(=O)NC1(C(=O)N[C@@H](CCC(=O)O)C(=O)N[C@@H](Cc2ccccc2)C(=O)N[C@H](C(=O)N[C@@H](CCC(=O)O)C(=O)N[C@@H](Cc2c[nH]c3ccccc23)C(=O)N[C@@H](CC(C)C)C(=O)N[C@@H](CC(C)C)C(=O)N[C@@H](C)C(=O)N[C@H](CCC(=O)O)C(=O)NCC(=O)N2CCC[C@H]2C(=O)N[C@@H](CO)C(=O)N[C@@H](CO)C(=O)NCC(=O)N[C@@H](C)C(=O)N2CCC[C@H]2C(=O)N2CCC[C@H]2C(=O)N2CCC[C@H]2C(=O)N[C@@H](CO)C(N)=O)C(C)C)CCC1` [Compound 0147]: the EC50 stood at 0.005 nM in data set [1] and 0.035 nM in data set [2] (setting [4]).

For `CC[C@H](C)[C@H](NC(=O)[C@H](CO)NC(=O)[C@H](CC(C)C)NC(=O)[C@H](CC(=O)O)NC(=O)[C@H](CO)NC(=O)[C@@H](NC(=O)[C@H](Cc1ccccc1)NC(=O)[C@@H](NC(=O)CNC(=O)[C@H](Cc1c[nH]cn1)NC(=O)C(C)(C)NC(=O)[C@@H](N)Cc1c[nH]cn1)[C@@H](C)O)[C@@H](C)O)C(=O)N[C@@H](CC(C)C)C(=O)N[C@@H](CC(C)C)C(=O)N[C@@H](CCC(=O)O)C(=O)N[C@@H](CCCCNC(=O)COCCOCCNC(=O)COCCOCCNC(=O)CC[C@H](NC(=O)CCCCCCCCCCCCCCCCCCC(=O)O)C(=O)O)C(=O)N[C@@H](CCCCN)C(=O)N[C@@H](C)C(=O)N[C@@H](C)C(=O)NC1(C(=O)N[C@@H](CCC(=O)O)C(=O)N[C@@H](Cc2ccccc2)C(=O)N[C@H](C(=O)N[C@@H](CCC(=O)O)C(=O)N[C@@H](Cc2c[nH]c3ccccc23)C(=O)N[C@@H](CC(C)C)C(=O)N[C@@H](CC(C)C)C(=O)N[C@@H](C)C(=O)N[C@H](CCC(=O)O)C(=O)NCC(=O)N2CCC[C@H]2C(=O)N[C@@H](CO)C(=O)N[C@@H](CO)C(=O)NCC(=O)N[C@@H](C)C(=O)N2CCC[C@H]2C(=O)N2CCC[C@H]2C(=O)N2CCC[C@H]2C(=O)N[C@@H](CO)C(N)=O)C(C)C)CC1` [Compound 0146], the EC50 worked out at 0.009 nM in data set [1] and 0.033 nM in data set [2] (setting [4]).

Take `CC(C)C[C@H](NC(=O)[C@H](CC(C)C)NC(=O)[C@H](Cc1c[nH]c2ccccc12)NC(=O)[C@H](CCC(=O)O)NC(=O)[C@@H](NC(=O)[C@H](Cc1ccccc1)NC(=O)[C@H](CCC(=O)O)NC(=O)[C@H](CCC(N)=O)NC(=O)[C@H](C)NC(=O)[C@H](C)NC(=O)[C@H](CCCCN)NC(=O)[C@H](CCCCNC(=O)COCCOCCNC(=O)COCCOCCNC(=O)CC[C@H](NC(=O)CCCCCCCCCCCCCCCCCCC(=O)O)C(=O)O)NC(=O)[C@H](CCC(=O)O)NC(=O)[C@H](CC(C)C)NC(=O)C(C)(C)NC(=O)[C@H](CCCCN)NC(=O)[C@H](CO)NC(=O)[C@H](Cc1ccc(O)cc1)NC(=O)[C@H](CC(=O)O)NC(=O)[C@H](CO)NC(=O)[C@@H](NC(=O)[C@H](Cc1ccccc1)NC(=O)[C@@H](NC(=O)CNC(=O)[C@H](Cc1c[nH]cn1)NC(=O)C(C)(C)NC(=O)[C@@H](N)Cc1c[nH]cn1)[C@@H](C)O)[C@@H](C)O)C(C)C)C(=O)N[C@@H](C)C(=O)NCC(=O)NCC(=O)N1CCC[C@H]1C(=O)N[C@@H](CO)C(=O)N[C@@H](CO)C(=O)NCC(=O)N[C@@H](C)C(=O)N1CCC[C@H]1C(=O)N1CCC[C@H]1C(=O)N1CCC[C@H]1C(=O)N[C@@H](CO)C(N)=O` [Compound 0107]: in data set [2] (setting [4]), the EC50 came to 0.016 nM.

In data set [2], `CC(C)C[C@H](NC(=O)[C@H](CC(C)C)NC(=O)[C@H](Cc1c[nH]c2ccccc12)NC(=O)[C@H](CCC(=O)O)NC(=O)[C@@H](NC(=O)[C@H](Cc1ccccc1)NC(=O)[C@H](CCC(=O)O)NC(=O)[C@H](CCC(N)=O)NC(=O)[C@H](CCC(N)=O)NC(=O)[C@H](C)NC(=O)[C@H](CCCCN)NC(=O)[C@H](CCCCNC(=O)COCCOCCNC(=O)COCCOCCNC(=O)CC[C@H](NC(=O)CCCCCCCCCCCCCCCCCCC(=O)O)C(=O)O)NC(=O)[C@H](CCC(=O)O)NC(=O)[C@H](CC(C)C)NC(=O)[C@H](Cc1ccc(O)cc1)NC(=O)[C@](C)(CCCCN)NC(=O)[C@H](CO)NC(=O)[C@H](Cc1ccc(O)cc1)NC(=O)[C@H](CC(=O)O)NC(=O)[C@H](CO)NC(=O)[C@@H](NC(=O)[C@H](Cc1ccccc1)NC(=O)[C@@H](NC(=O)CNC(=O)[C@H](Cc1c[nH]cn1)NC(=O)C(C)(C)NC(=O)[C@@H](N)Cc1c[nH]cn1)[C@@H](C)O)[C@@H](C)O)C(C)C)C(=O)N[C@@H](C)C(=O)NCC(=O)NCC(=O)N1CCC[C@H]1C(=O)N[C@@H](CO)C(=O)N[C@@H](CO)C(=O)NCC(=O)N[C@@H](C)C(=O)N1CCC[C@H]1C(=O)N1CCC[C@H]1C(=O)N1CCC[C@H]1C(=O)N[C@@H](CO)C(N)=O` [Compound 0113] (H-H[Aib]HGTFTSDYS[αMeK]YLEK([AEEA-AEEA-γGlu-C20 diacid])KAQQEFVEWLLAGGPSSGAPPPS-NH2) returned an EC50 of 0.032 nM.

As to `CC[C@H](C)[C@H](NC(=O)[C@H](CO)NC(=O)[C@H](Cc1ccc(O)cc1)NC(=O)[C@H](CC(=O)O)NC(=O)[C@H](CO)NC(=O)[C@@H](NC(=O)[C@H](Cc1ccccc1)NC(=O)[C@@H](NC(=O)CNC(=O)[C@H](CCC(N)=O)NC(=O)C(C)(C)NC(=O)[C@@H](N)Cc1c[nH]cn1)[C@@H](C)O)[C@@H](C)O)C(=O)N[C@@H](CC(C)C)C(=O)N[C@@H](CC(C)C)C(=O)N[C@@H](CCC(=O)O)C(=O)N[C@@H](CCCCNC(=O)COCCOCCNC(=O)COCCOCCNC(=O)CC[C@H](NC(=O)CCCCCCCCCCCCCCCCCCC(=O)O)C(=O)O)C(=O)N[C@@H](CCCCN)C(=O)N[C@@H](C)C(=O)N[C@@H](C)C(=O)N[C@@H](CCC(N)=O)C(=O)N[C@@H](CCC(=O)O)C(=O)N[C@@H](Cc1ccccc1)C(=O)N[C@H](C(=O)N[C@@H](CCC(=O)O)C(=O)N[C@@H](Cc1c[nH]c2ccccc12)C(=O)N[C@@H](CC(C)C)C(=O)N[C@@H](CC(C)C)C(=O)N[C@@H](C)C(=O)NCC(=O)NCC(=O)N1CCC[C@H]1C(=O)N[C@@H](CO)C(=O)N[C@@H](CO)C(=O)NCC(=O)N[C@@H](C)C(=O)N1CCC[C@H]1C(=O)N1CCC[C@H]1C(=O)N1CCC[C@H]1C(=O)N[C@@H](CO)C(N)=O)C(C)C` [Compound 0154] (H-H[Aib]QGTFTSDYSILLEK([AEEA-AEEA-γGlu-C20 diacid])KAAQEFVEWLLAGGPSSGAPPPS-NH2), the EC50 in data set [2] (setting [4]) was 0.033 nM.

In data set [3], `CC[C@H](C)[C@H](NC(=O)[C@H](CO)NC(=O)[C@H](CC(C)C)NC(=O)[C@H](CC(=O)O)NC(=O)[C@H](CO)NC(=O)[C@@H](NC(=O)[C@H](Cc1ccccc1)NC(=O)[C@@H](NC(=O)CNC(=O)[C@H](Cc1c[nH]cn1)NC(=O)C(C)(C)NC(=O)[C@@H](N)Cc1c[nH]cn1)[C@@H](C)O)[C@@H](C)O)C(=O)N[C@@H](CC(C)C)C(=O)N[C@@H](CC(C)C)C(=O)N[C@@H](CCC(=O)O)C(=O)N[C@@H](CCCCNC(=O)COCCOCCNC(=O)COCCOCCNC(=O)CC[C@H](NC(=O)CCCCCCCCCCCCCCCCCCC(=O)O)C(=O)O)C(=O)N[C@@H](CCCCN)C(=O)N[C@@H](C)C(=O)N[C@@H](C)C(=O)N[C@@H](CCC(N)=O)C(=O)N[C@@H](CCC(=O)O)C(=O)N[C@@H](Cc1ccccc1)C(=O)N[C@H](C(=O)N[C@@H](CCC(=O)O)C(=O)N[C@@H](Cc1c[nH]c2ccccc12)C(=O)N[C@@H](CC(C)C)C(=O)N[C@@H](CC(C)C)C(=O)N[C@@H](C)C(=O)N[C@H](CCC(=O)O)C(=O)NCC(=O)N1CCC[C@H]1C(=O)N[C@@H](CO)C(=O)N[C@@H](CO)C(=O)NCC(=O)N[C@@H](C)C(=O)N1CCC[C@H]1C(=O)N1CCC[C@H]1C(=O)N1CCC[C@H]1C(=O)N[C@@H](CO)C(N)=O)C(C)C` [Compound 0144] gave a clearance of 0.114 mL/min/kg and a half-life of 9.7 h. Further, the EC50 in data set [2] (setting [4]) was 0.035 nM.

One may read the EC50 as the concentration needed to bring the measured effect to its halfway point. By clearance is commonly meant the volume of plasma or blood freed of the substance per unit of time. Usually half-life stands for the time needed for the level to fall by half in the phase considered. Read a low half-life as fast loss.
